Results: US7537787B2, “Method for modulating glutamate and/or aspartate release in a central nervous system locus” (Indiana University Research and Technology Corporation, priority 1996, dated 2009)

Experiments:
[1] = test system: rat hippocampal slices (glutamate release); assay: TRH inhibition of [K+]-stimulated glutamate release from superfused hippocampal slices in vitro; assay type: cell-based; details: for glutamate at 10 min. post stimulation: control 4.37±1.29; for peak 50 mM [K+]-stimulated glutamate release: control 48.05±8.59
Source text: TRH INHIBITION OF [K^+]-STIMULATED GLUTAMATE RELEASE FROM HIPPOCAMPAL SLICES IN VITRO. Enhanced excitatory amino acid release is suspected in pathways associated with seizures and excitotoxicity. In this regard, superfused hippocampal slices were used to investigate the hypothesis that TRH could inhibit glutamate release in vitro. Rat hippocampi were removed and sliced transversely (500 μm) under low magnification. Slices were weighed, washed in cold saline, transferred to individual tissue chambers floated in a 37° C. water bath and were equilibrated in oxygenated (95% O2/5% CO2), (37° C.) Kreb's buffer (KRB) for 120 min. (0.5 ml/min.). Slice chambers were then superfused 10 min. with KRB (control), or KRB containing 10 μM, 1 μM, or 0.1 μM TRH respectively, prior to 5 min. stimulation with modified KRB (50 mM [K^+]±TRH). Fractions (1 min.) were collected during the 5 min. stimulation and for an additional 10 min. (0.5 ml/min.) thereafter, and analyzed for glutamate by HPLC.

[2] = test system: Gαq/11 G proteins (TRH receptor); details: sustained TRH exposure (16 hr.) to its receptor; cited from earlier work

NC(=O)[C@@H]1CCCN1C(=O)[C@H](Cc1cnc[nH]1)NC(=O)[C@@H]1CCC(=O)N1 [TRH, Thyrotropin-releasing hormone]
glutamate at 10 min. post stimulation ([1]; 0.1 μM TRH): 1.54±0.43 μM/g/fraction
peak 50 mM [K+]-stimulated glutamate release ([1]; 0.1 μM TRH): 1.38±0.28 μM/g/fraction
glutamate at 10 min. post stimulation ([1]; 1 μM TRH): 1.11±0.26 μM/g/fraction
peak 50 mM [K+]-stimulated glutamate release ([1]; 1 μM TRH): 1.54±0.33 μM/g/fraction
glutamate at 10 min. post stimulation ([1]; 10 μM TRH): 1.35±0.48 μM/g/fraction
peak 50 mM [K+]-stimulated glutamate release ([1]; 10 μM TRH): 2.35±0.50 μM/g/fraction
glutamate release by 50 mM [K+]-stimulation given 15 min. later ([1]; 5 min. perfusion with KRB+10 μM TRH, p<0.05, FIG. 6): significantly (p<0.05) blocked
reduction of Gαq/11 G proteins [2]: 20-70%
